Read-outs that look alike come from different tables or passages of the source.
Tests used:
NUDT5 [1] = molecular target: NUDT5 (Homo sapiens, UniProt Q9UKK9); assay: NanoBRET NUDT5 target engagement (TE) assay in HEK293 cells; assay type: cell-based; set-up: expressed in transfected cells; host or cells: HEK293
[2] = molecular target: NUDT5 and the respective E3 ligase (Homo sapiens, UniProt P40337+Q9UKK9); assay: NanoBRET ternary complex formation assay NUDT5 and the respective E3 ligase (VHL or CRBN) in HEK293 cells; assay type: cell-based; details: for Ternary complex formation below 1 µM (20 h): HEK293, 20 h; for Ternary complex formation below 1 µM (4 h): HEK293, 4 h
Description: NanoBRET ternary complex assays were performed following the manufacturer’s instructions (Promega). […] After 4 h or 20 h of incubation, a mix of substrate in assay medium was added to each well. Donor and acceptor signals were measured in a PHERAstar FSX or FS plate reader and analyzed by GraphPad Prism (v.9 or v.10). The acceptor/donor ratio was calculated, the no ligand background signal was subtracted, and multiplied by 1000 to yield mBRET units. Data were then normalized to DMSO.

NUDT5 [3] = molecular target: T1, NUDT5 (Homo sapiens, UniProt Q96SW2+Q9UKK9); assay: Western blot NUDT5 degradation in HEK293 cells; assay type: cell-based; details: 20 h, Western blot
Description: (§1) Pellets were lysed on ice using RIPA buffer (25 mM Tris (pH 7.5), 150 mM NaCl, 1% Igepal, 1% SDS, 0.1% SDC, 1x protease inhibitor (Roche, cOmplete mini, 11836170001), 1x phosphatase (Thermo Scientific, Halt, 78429), 0.1% benzonase (Merck, E1014-5KU)), incubated for 15 min and then centrifuged for 20 min at 4 °C at maximum speed in a table-top centrifuge. […] Membranes were blocked with 6% milk in PBS-T for 1 h at RT, washed, and then incubated with primary antibody diluted in PBS-T supplemented with 0.1% NaN3 overnight at 4 °C. Membranes were incubated with fluorophore-conjugated secondary antibodies, Alexa Fluor 680 anti-rabbit IgG (Life Technologies, A21109), Alexa Fluor 750 anti-mouse IgG (Life Technologies, A21037) diluted 1:5000 in 2% milk PBS-T, washed and imaged with an Odyssey imager (Licor).

HAP1 cell lines = assay: TH1760/6-TG cell viability assay in HAP1 cell lines; assay type: cell-based, human; details: 72 h
Description: After 72 h incubation, cell viability was measured using the CellTiter-Glo assay (Promega). Signals were normalized to the control condition.

NUDT5 [4] = molecular target: T1, NUDT5; assay: Western blot NUDT5 degradation in HAP1 cells; assay type: cell-based; set-up: endogenous in cells; host or cells: HAP1; details: HAP1 cells, Western blot, Fig. 3B
Description: as §1

HAP1 cells = assay: Titration of NUDT5 degraders and controls against fixed 6-TG (2 µg/mL) in HAP1 cells, cell viability; assay type: cell-based, human; details: HAP1, 2 µg/mL 6-TG, 72 h
Description: Cells were counted and adjusted to a density of 25,000 cells/mL in culture medium. […] Plates were sealed with breathable film and incubated at 37 °C with 5% CO₂ for 72 hours. Cell viability was assessed using the CellTiter-Glo Luminescent Cell Viability Assay, following the manufacturer’s protocol (Promega). Luminescence was measured using a PHERAstar FS or FSX plate reader, and data were analyzed using GraphPad Prism software (versions 9 or 10). Results were normalized to the vehicle control (DMSO).

[5] = read-out: EC50 (µM), TE 4h, HEK293, 4 h, Supplementary Table 1
[6] = read-out: EC50 (nM) TE (4h), HEK293, 4 h, Supplementary Table 3

NUDT5 and the respective E3 ligase, sequence (P40337 whole entry, one chain of several): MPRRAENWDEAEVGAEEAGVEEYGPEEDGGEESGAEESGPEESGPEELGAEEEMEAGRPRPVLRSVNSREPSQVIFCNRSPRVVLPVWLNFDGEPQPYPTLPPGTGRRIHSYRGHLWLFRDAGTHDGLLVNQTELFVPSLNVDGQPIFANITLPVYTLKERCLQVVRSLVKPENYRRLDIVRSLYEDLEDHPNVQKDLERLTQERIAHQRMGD

Cc1ncsc1-c1ccc(CNC(=O)C2CC(O)CN2C(=O)C(NC(=O)CCCCCOCCCCCOCCCCCCN2CCCC(n3nc(-c4ccc(Oc5ccccc5)cc4)c4c(N)ncnc43)C2)C(C)(C)C)cc1 (centres unmarked) [ASM32]
EC50 (NUDT5 [1]; [5]): > 10 µM | Ternary complex formation below 1 µM (20 h) ([2]; Supplementary Table 1): No

Cn1c(=O)c2c(nc(N3CCN(C(=O)CCCCNC(=O)COc4cccc5c4C(=O)N(C4CCC(=O)NC4=O)C5=O)CC3)n2Cc2nnc(-c3ccc(Cl)c(Cl)c3)o2)n(C)c1=O (centres unmarked) [ASM57]
Ternary complex formation below 1 µM (20 h) ([2]; Supplementary Table 2): No

Cn1c(=O)c2c(nc(N3CCN(C(=O)CCOCCOCCNc4cccc5c4C(=O)N(C4CCC(=O)NC4=O)C5=O)CC3)n2Cc2nnc(-c3ccc(Cl)c(Cl)c3)o2)n(C)c1=O (centres unmarked) [ASM68]
Ternary complex formation below 1 µM (20 h) ([2]; Supplementary Table 2): Yes

Cn1c(=O)c2c(nc(N3CCN(CC4CCN(c5ccc6c(c5)C(=O)N(C5CCC(=O)NC5=O)C6=O)CC4)CC3)n2Cc2nnc(-c3ccc(Cl)c(Cl)c3)o2)n(C)c1=O (centres unmarked) [ASM70]
EC50 (NUDT5 [1]; [6]): 0.042 µM | Ternary complex formation below 1 µM (20 h) ([2]; Supplementary Table 3): Yes

Cn1c(=O)c2c(nc(N3CCN(CC4CCN(c5cc6c(cc5F)C(=O)N(C5CCC(=O)NC5=O)C6=O)CC4)CC3)n2Cc2nnc(-c3ccc(Cl)c(Cl)c3)o2)n(C)c1=O (centres unmarked) [ASM71]
EC50 (NUDT5 [1]; [6]): 0.017 µM | Ternary complex formation below 1 µM (20 h) ([2]; Supplementary Table 3): No

Cc1ncsc1-c1ccc(CNC(=O)C2CC(O)CN2C(=O)C(NC(=O)CCCCCOCCOCCOCCCCCCN2CCCC(n3nc(-c4ccc(Oc5ccccc5)cc4)c4c(N)ncnc43)C2)C(C)(C)C)cc1 (centres unmarked) [ASM73]
EC50 (NUDT5 [1]; [5]): > 10 µM | Ternary complex formation below 1 µM (20 h) ([2]; Supplementary Table 1): No

Cc1ncsc1-c1ccc(CNC(=O)C2CC(O)CN2C(=O)C(NC(=O)COCCOCCCCCCC(=O)N2CCC(n3nc(-c4ccc(Oc5ccccc5)cc4)c4c(N)ncnc43)CC2)C(C)(C)C)cc1 (centres unmarked) [ASM74]
EC50 (NUDT5 [1]; [5]): > 10 µM | Ternary complex formation below 1 µM (20 h) ([2]; Supplementary Table 1): No

Cc1ncsc1-c1ccc(CNC(=O)C2CC(O)CN2C(=O)C(NC(=O)COCCOCCCCCCC(=O)N2CCCC(n3nc(-c4ccc(Oc5ccccc5)cc4)c4c(N)ncnc43)C2)C(C)(C)C)cc1 (centres unmarked) [ASM75]
EC50 (NUDT5 [1]; [5]): > 10 µM | Ternary complex formation below 1 µM (20 h) ([2]; Supplementary Table 1): No

Cc1ncsc1-c1ccc(CNC(=O)C2CC(O)CN2C(=O)C(NC(=O)COCCOCCCCCCC(=O)N2CCN(c3nc4c(c(=O)n(C)c(=O)n4C)n3Cc3nnc(-c4ccc(Cl)c(Cl)c4)o3)CC2)C(C)(C)C)cc1 (centres unmarked) [ASM076]
EC50 (NUDT5 [1]; read-out: EC50 (nM) TE (4h), HEK293, 4 h, Supplementary Table 2): 2 µM | Ternary complex formation below 1 µM (20 h) ([2]; Supplementary Table 2): No

Cn1c(=O)c2c(nc(N3CCN(C(=O)CCCCCCNc4cccc5c4C(=O)N(C4CCC(=O)NC4=O)C5=O)CC3)n2Cc2nnc(-c3ccc(Cl)c(Cl)c3)o2)n(C)c1=O (centres unmarked) [ASM84]
Ternary complex formation below 1 µM (20 h) ([2]; Supplementary Table 2): Yes

Cn1c(=O)c2c(nc(N3CCN(CCC4CCN(c5ccc6c(c5)C(=O)N(C5CCC(=O)NC5=O)C6=O)CC4)CC3)n2Cc2nnc(-c3ccc(Cl)c(Cl)c3)o2)n(C)c1=O (centres unmarked) [ASM102]
EC50 (NUDT5 [1]; [6]): 0.102 µM | Ternary complex formation below 1 µM (20 h) ([2]; Supplementary Table 3): Yes

Cn1c(=O)c2c(nc(N3CCN(CC4CCN(c5ccc6c(c5)C(=O)N(C5CCC(=O)NC5=O)C6=O)C4)CC3)n2Cc2nnc(-c3ccc(Cl)c(Cl)c3)o2)n(C)c1=O (centres unmarked) [ASM105]
EC50 (NUDT5 [1]; [6]): 0.103 µM | Ternary complex formation below 1 µM (20 h) ([2]; Supplementary Table 3): No

Cn1c(=O)c2c(nc(N3CCN(CC4CCN(c5cccc6c5C(=O)N(C5CCC(=O)NC5=O)C6=O)CC4)CC3)n2Cc2nnc(-c3ccc(Cl)c(Cl)c3)o2)n(C)c1=O (centres unmarked) [ASM110]
EC50 (NUDT5 [1]; [6]): 0.061 µM | Ternary complex formation below 1 µM (20 h) ([2]; Supplementary Table 3): No

Cn1c(=O)c2c(nc(N3CCN(C(=O)CCCNc4cccc5c4C(=O)N(C4CCC(=O)NC4=O)C5=O)CC3)n2Cc2nnc(-c3ccc(Cl)c(Cl)c3)o2)n(C)c1=O (centres unmarked) [ASM111]
Ternary complex formation below 1 µM (20 h) ([2]; Supplementary Table 2): Yes | effect on NUDT5 protein levels (NUDT5 [3]): no significant effects on NUDT5 protein levels

Cn1c(=O)c2c(nc(N3CCN(C(=O)CCCCCNc4cccc5c4C(=O)N(C4CCC(=O)NC4=O)C5=O)CC3)n2Cc2nnc(-c3ccc(Cl)c(Cl)c3)o2)n(C)c1=O (centres unmarked) [ASM122]
Ternary complex formation below 1 µM (4 h) ([2]; Supplementary Table 2): Yes | Ternary complex formation below 1 µM (20 h) ([2]; Supplementary Table 2): Yes | effect on NUDT5 protein levels (NUDT5 [3]): no significant effects on NUDT5 protein levels

Cn1c(=O)c2c(nc(N3CCN(C(=O)CCCCNc4cccc5c4C(=O)N(C4CCC(=O)NC4=O)C5=O)CC3)n2Cc2nnc(-c3ccc(Cl)c(Cl)c3)o2)n(C)c1=O (centres unmarked) [ASM124]
Ternary complex formation below 1 µM (4 h) ([2]; Supplementary Table 2): Yes | Ternary complex formation below 1 µM (20 h) ([2]; Supplementary Table 2): Yes

Cc1ncsc1-c1ccc(CNC(=O)C2CC(O)CN2C(=O)C(NC(=O)CCOCCOCCOCCC(=O)N2CCN(c3nc4c(c(=O)n(C)c(=O)n4C)n3Cc3nnc(-c4ccc(Cl)c(Cl)c4)o3)CC2)C(C)(C)C)cc1 (centres unmarked) [ASM131]
Ternary complex formation below 1 µM (4 h) ([2]; Supplementary Table 2): No | Ternary complex formation below 1 µM (20 h) ([2]; Supplementary Table 2): No

Cn1c(=O)c2c(nc(N3CCN(C(=O)CCCCCCCCNc4cccc5c4C(=O)N(C4CCC(=O)NC4=O)C5=O)CC3)n2Cc2nnc(-c3ccc(Cl)c(Cl)c3)o2)n(C)c1=O (centres unmarked) [ASM133]
Ternary complex formation below 1 µM (4 h) ([2]; Supplementary Table 2): Yes | Ternary complex formation below 1 µM (20 h) ([2]; Supplementary Table 2): Yes

Cn1c(=O)c2c(nc(N3CCN(C(=O)CCCCCCCNc4cccc5c4C(=O)N(C4CCC(=O)NC4=O)C5=O)CC3)n2Cc2nnc(-c3ccc(Cl)c(Cl)c3)o2)n(C)c1=O (centres unmarked) [ASM134]
Ternary complex formation below 1 µM (4 h) ([2]; Supplementary Table 2): Yes | Ternary complex formation below 1 µM (20 h) ([2]; Supplementary Table 2): Yes

Cn1c(=O)c2c(nc(N3CCN(C(=O)CCCCCCCCOc4cccc5c4C(=O)N(C4CCC(=O)NC4=O)C5=O)CC3)n2Cc2nnc(-c3ccc(Cl)c(Cl)c3)o2)n(C)c1=O (centres unmarked) [ASM135]
Ternary complex formation below 1 µM (4 h) ([2]; Supplementary Table 2): Yes | Ternary complex formation below 1 µM (20 h) ([2]; Supplementary Table 2): Yes

Cn1c(=O)c2c(nc(N3CCN(C(=O)CCCCCCOc4cccc5c4C(=O)N(C4CCC(=O)NC4=O)C5=O)CC3)n2Cc2nnc(-c3ccc(Cl)c(Cl)c3)o2)n(C)c1=O (centres unmarked) [ASM136]
Ternary complex formation below 1 µM (4 h) ([2]; Supplementary Table 2): No | Ternary complex formation below 1 µM (20 h) ([2]; Supplementary Table 2): No

Cn1c(=O)c2c(nc(N3CCN(C(=O)CCOCCNc4cccc5c4C(=O)N(C4CCC(=O)NC4=O)C5=O)CC3)n2Cc2nnc(-c3ccc(Cl)c(Cl)c3)o2)n(C)c1=O (centres unmarked) [ASM137]
Ternary complex formation below 1 µM (4 h) ([2]; Supplementary Table 2): Yes | Ternary complex formation below 1 µM (20 h) ([2]; Supplementary Table 2): Yes | effect on NUDT5 protein levels (NUDT5 [3]): no significant effects on NUDT5 protein levels

Nc1ncnc2c1c(-c1ccc(Oc3ccccc3)cc1)nn2[C@@H]1CCCN(C(=O)c2cn(CCOCCOCCOCCNc3cccc4c3C(=O)N(C3CCC(=O)NC3=O)C4=O)nn2)C1 (some centres unmarked) [Compound P13I1, reference compound]
EC50 (NUDT5 [1]; [5]): 8.9 µM | Ternary complex formation below 1 µM (20 h) ([2]; Supplementary Table 1): No

Nc1ncnc2c1c(-c1ccc(Oc3ccccc3)cc1)nn2C1CCN(CCOCCOCC(=O)Nc2ccc3c(c2)C(=O)N(C2CCC(=O)NC2=O)C3=O)CC1 (centres unmarked) [MT-802, reference compound]
EC50 (NUDT5 [1]; [5]): 1.3 µM | Ternary complex formation below 1 µM (20 h) ([2]; Supplementary Table 1): No

O=C(c1ccc2[nH]ccc2c1)N1CCN(S(=O)(=O)c2ccc3[nH]c(=O)oc3c2)CC1 [TH1760]
sensitization of cells towards 6-TG (HAP1 cell lines; HAP1 WT, 6-TG 1 µM fixed): sensitized HAP1 WT cells towards 6-TG in a dose-dependent manner | effect on cell viability without 6-TG (HAP1 cell lines; HAP1 cell lines, up to 50 µM): does not affect HAP1 cell viability

CN1C(=O)CCC(N2C(=O)c3ccc(N4CCN(CC5CCN(C(=O)N6CCN(c7nc8c(c(=O)n(C)c(=O)n8C)n7Cc7nnc(-c8ccc(Cl)c(Cl)c8)o7)CC6)CC5)CC4)cc3C2=O)C1=O (centres unmarked) [dNUDT5nc]
EC50 (NUDT5 [1]; HEK293 cells, Supplementary Fig. 6B, read-out: NUDT5 NanoBRET target engagement EC50): 0.028 µM | NUDT5 engagement in live cells (NUDT5 [1]; NanoBRET): engaged their cognate target NUDT5 in live cells | NUDT5 degradation (NUDT5 [4]): preventing NUDT5 degradation | rescue of 6-TG-induced toxicity (HAP1 cells): failed to rescue cell viability
